The record followed here is publication PMC11674187, “Inhibitory Effects of Cenobamate on Multiple Human Cardiac Ion Channels and Possible Arrhythmogenic Consequences” (Biomolecules, 2024).

The target in data set [1] is T1, hKv11.1 (hERG) (Homo sapiens, UniProt Q12809).
T1 construct: host or cells: HEK293T
Nature of the data set: Whole-cell patch-clamp on HEK293T cells, IKr. The class given is cell-based. Here is the method:
(§1) Experiments were performed on HEK293T cell lines with persistent/inducible expression of different human cardiac ion channel isoforms: hNav1.5 and hKv7.1 + minK (Anaxon AG, Bern, Switzerland), hCav1.2 (α1c + β2 + α2δ1) (B’SYS GmbH, Witterswil, Switzerland), and hKv11.1 (hERG) (Cytocentrics Bioscience GmbH, Rostock, Germany). The cell lines were grown in standard conditions (37 °C, 5% CO2, 90% humidity) in DMEM:F12 medium (D8900, Sigma-Aldrich, Burlington, MA, USA) buffered with 15 mM HEPES, containing 3.15 g/L D-glucose and 0.055 g/L sodium pyruvate, supplemented with 1.2 g/L sodium bicarbonate, 10% fetal bovine serum (F2442, Sigma-Aldrich, Burlington, MA, USA), 2 mM L-glutamine (G7513, Sigma-Aldrich, Burlington, MA, USA), 1% penicillin–streptomycin (P4333, Sigma-Aldrich, Burlington, MA, USA), and with specific antibiotics for selection of transfected cells or induction of gene expression according to manufacturers’ instructions. The medium was changed every 2–3 days and the cells were passed weekly upon detachment with trypsin–EDTA solution. All cell culture media and solutions were sterile filtered with 0.22 μm polyvinylidene fluoride filters. Ncyte® vCardiomyocytes (Ncardia, Leiden, The Netherlands) were cultured in 24-well plates precoated with bovine fibronectin, following manufacturer’s instructions. For the experiments, cardiomyocytes were detached as described previously and plated on ϕ 10 mm glass coverslips, like the other cell lines.
(§2) Manual whole-cell patch-clamp experiments were performed at room temperature, with equipment as described in previous studies. Pipettes were pulled from Clark borosilicate glass capillaries with inner filament (GC150F-10, Harvard Apparatus, Holliston, MA, USA) and had typical resistances of 2–3 MΩ. Recordings were performed with a WPC-100 resistive feedback amplifier (ESF electronic, Göttingen, Germany) or an Axopatch 200B amplifier (Axon Instruments—Molecular Devices, San Jose, CA, USA) connected to a Digidata 1322A interface driven by the pClamp 8.2 Clampex module (Axon Instruments, part of Molecular Devices, San Jose, CA, USA). For different types of ion channel, we applied specific voltage-clamp protocols as follows: • - For hERG, a standard two-step activation protocol was used: holding at −70 mV, a 100 ms step at −50 mV used as current reference for measurements, a 2 s depolarizing step at +40 mV, followed by a 2 s step at −50 mV to elicit the peak hERG current by rapid recovery from inactivation, repeated sweeps at 10 s intervals, plus specific protocols to assess the voltage dependence of activation and inactivation, as described in Thomet et al., 2021 [11]. • - For hKv7.1 + minK, a general two-step activation protocol was used: holding at −110 mV, a 250 ms step at −80 mV with a brief (50 ms) step at −90 mV at the middle to monitor seal quality, a 3000 ms depolarizing step at +60 mV, followed by a 1000 ms step at −50 mV; repeated sweeps at 20 s intervals. • - For hCav1.2, a pharmacology protocol with holding at −80 mV, a first 100 ms step at −50 mV and a second 200 ms step at 0 mV, repeated sweeps at 20 s intervals with drug application after 5 sweeps if current levels were steady, plus an activation–inactivation protocol with holding at −80 mV, 1000 ms depolarizing steps from −80 to +50 mV in 10 mV increments, followed by 250 ms steps at +10 mV and a return to −80 mV; 14 sweeps at 20 s intervals. • - For hNav1.5, multiple voltage protocols were used, including the following: • - A standard pharmacology protocol with holding at −90 mV, a 20 ms step at −110 mV for seal monitoring, a 40 ms activation step at −10 mV, and repeated sweeps at 1 s intervals. […]
(In general: Patch clamp records ionic current or voltage across a cell membrane.)

Data set [2] deals with T2, hKv11.1 (hERG), IKr (Homo sapiens, UniProt Q12809).
T2 construct: host or cells: HEK293T
The experiment in a line: Whole-cell patch-clamp on HEK293T cells, IKr. The note with it: human, HEK293T cells expressing hKv11.1 (hERG); for inhibition at 200 µM: pH 7.4, cenobamate 200 µM. The format is cell-based. The method, then: as §1, §2

Where “and” joins values, the source holds several entries; their conditions need not be identical. Equal entries are not always repeated. Where two headings read alike, the source gives them in different places.

T1 sequence (Q12809 whole entry): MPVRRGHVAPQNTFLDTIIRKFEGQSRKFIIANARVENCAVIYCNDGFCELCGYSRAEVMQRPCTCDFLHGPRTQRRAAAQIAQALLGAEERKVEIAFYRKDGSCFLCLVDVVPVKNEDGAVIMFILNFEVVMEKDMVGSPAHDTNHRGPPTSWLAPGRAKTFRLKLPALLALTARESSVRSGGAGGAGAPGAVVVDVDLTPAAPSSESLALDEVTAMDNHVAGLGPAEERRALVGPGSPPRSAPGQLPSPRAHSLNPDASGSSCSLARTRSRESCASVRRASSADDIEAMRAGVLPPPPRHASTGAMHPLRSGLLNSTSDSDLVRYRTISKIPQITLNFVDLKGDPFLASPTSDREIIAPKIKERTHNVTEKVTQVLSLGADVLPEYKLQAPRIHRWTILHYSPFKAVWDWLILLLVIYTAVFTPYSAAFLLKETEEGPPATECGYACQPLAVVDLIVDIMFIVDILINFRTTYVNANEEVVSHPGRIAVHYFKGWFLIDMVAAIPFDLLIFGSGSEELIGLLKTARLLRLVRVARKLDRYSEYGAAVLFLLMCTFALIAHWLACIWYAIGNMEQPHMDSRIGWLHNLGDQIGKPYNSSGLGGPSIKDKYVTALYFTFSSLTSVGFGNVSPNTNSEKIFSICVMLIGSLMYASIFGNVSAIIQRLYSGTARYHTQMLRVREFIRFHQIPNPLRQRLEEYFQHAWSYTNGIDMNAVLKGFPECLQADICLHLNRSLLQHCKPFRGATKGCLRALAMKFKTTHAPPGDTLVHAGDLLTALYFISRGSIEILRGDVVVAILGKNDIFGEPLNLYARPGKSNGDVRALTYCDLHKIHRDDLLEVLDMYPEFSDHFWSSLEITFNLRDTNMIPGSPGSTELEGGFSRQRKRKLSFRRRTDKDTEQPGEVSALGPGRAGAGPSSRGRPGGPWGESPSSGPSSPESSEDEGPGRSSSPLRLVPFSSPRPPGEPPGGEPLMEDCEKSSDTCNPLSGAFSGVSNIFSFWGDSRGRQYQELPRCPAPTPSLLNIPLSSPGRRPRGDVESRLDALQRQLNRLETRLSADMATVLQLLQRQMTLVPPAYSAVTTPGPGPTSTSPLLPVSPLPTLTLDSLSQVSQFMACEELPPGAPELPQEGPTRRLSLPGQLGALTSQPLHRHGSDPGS
T2 sequence (Q12809 whole entry): as above

On to `NC(=O)O[C@@H](Cn1ncnn1)c1ccccc1Cl` [cenobamate], for which the concentration for half-maximal inhibition (IC50) (commonly the concentration that inhibits the measured activity by half) in data set [1] was greater than 200 µM. Also, the “% IKr inhibition, single experiments (Table S7)” value in data set [1] (cenobamate 200 µM) was 14.26% and 12.93% and 7.32% and 12.35%. Further, in data set [2] (pH 7.4, cenobamate 20 µM, vs. 4.1% in control experiments, read-out: average peak IKr (hERG) inhibition), the inhibition (usually how much of the control response was suppressed) at 20 µM was 5.3 ± 1.8%. Also, the inhibition at 200 µM in data set [2] (read-out: % IKr inhibition, single experiments (Table S7)) was 8.01%; in data set [2] (read-out: average peak IKr inhibition corrected for control (10.97 − 4.1)) it was 6.87%; in data set [2] (step at -50 mV, read-out: relative peak IKr inhibition, mean), 11 ± 3.11%.
